Reference: patent US20240124539A1, “CROSSLINKED HELIX DIMER MIMICS OF SOS AND METHODS OF USING SAME” (NEW YORK UNIVERSITY, priority 2020, published 2024)
Read-outs that look alike come from different tables or passages of the source. Residues, ends and D or L forms follow the SMILES beside them.

What was measured:
[1] = tested on: ERK phosphorylation in H358 cells; test: ERK activation assay, H358; assay type: cell-based; conditions: H358 cells, 1, 5, 10 μM, 6 hours
Experimental: (§1) H358 or HeLa cells were initially seeded in 6-well plates (1x10^6 cells/well) and allowed to attach overnight. The cells were then incubated with indicated peptides dissolved in complete medium at specified concentrations for 6 hours at 37° C. The cells were washed twice with ice-cold PBS and then lysed in cold RIPA buffer (200 μL/well) containing 25 mM Tris-HCl, pH 7.6, 150 mM NaCl, 1% NP-40, 1% sodium doexycholic acid, 0.1% SDS, Roche Complete Protease inhibitor cocktail (1X, Sigma-Aldrich, P2714), and Roche PhosSTOP phosphatase inhibitor cocktail tablets (1X, Sigma-Aldrich, 4906845001). The cells are kept on ice for 5 minutes with occasional swirling for uniform spreading. Cell lysates are generated with a cell scraper, transferred to a microcentrifuge tube, and centrifuged at 13,000 rpm for 10 minutes at 4° C. The clarified supernatant was collected, and the total protein concentration was measured by Pierce BCA protein assay. The lysates were subjected to SDS-PAGE (10 μg/lane loading) and Western Blot analysis via immunoblotting. Primary antibodies include Phospho-p44/42 MAPK (Erk1/2) (Thr202/Tyr204) (Cell Signaling 4370), p44/42 MAPK (Erk1/2) (Cell Signaling 4695), Ras (Abcam ab 108602), and a-tubulin (Cell Signaling 2144). Secondary antibodies include anti-rabbit IgG, HRP-linked antibody (Cell Signaling 7074P2, 1:2000). […]

[2] = tested on: H358 cells; test: Flow cytometry cellular uptake, H358; assay type: cell-based; conditions: fluorescently labeled peptide 1 μM, 1 h
Experimental: (§2) All compounds are dissolved as concentrated stocks in DMSO.

[3] = tested on: ERK phosphorylation in HeLa cells; test: ERK activation assay, HeLa; assay type: cell-based; conditions: HeLa cells (wild-type Ras), 1, 5, 10 μM, 6 hours
Experimental: as §1

[4] = tested on: Ras wild type and mutant cell lines; test: MTT cell viability assay; assay type: cell-based; conditions: 72 hours, in presence of serum; oncogenic Ras mutant cell lines in comparison to wild-type Ras HeLa control
Experimental: Cell viability was monitored using the MTT (Sigma-Aldrich, M2128) or CellTiter-Glo Luminescent cell viability assay (Promega).
Cell viability was monitored using the MTT (Sigma-Aldrich, M2128) […] cell viability assay. Cells were plated in clear 96-well plates at 2000 cells/well and allowed to affix overnight at 37° C. Each well is gently aspirated and washed with serum-free medium before introducing peptide inhibitors dissolved in complete medium with 0.5% DMSO (v/v final) to desired concentrations (90 μL/well). The cells are incubated in the presence of peptide for 72 hours at 37° C. MTT reagent solution is composed of Thiazolyl Blue Tetrazolium Bromide dissolved in Dulbecco's Phosphate Buffered Saline (DPBS), pH 7.4 to a concentration of 5 mg/mL and subsequently sterile-filtered into a light-protected container. MTT reagent was added to each well (0.45 mg/mL/well final). The cells are incubated at 37° C. for an additional 4 hours. Upon careful removal of the supernatant, 150 μL DMSO (solubilization solution) is added to each well and mixed to ensure complete solubilization and release of the insoluble purple formazan precipitate into solution. Absorbance values are recorded with a Synergy HT Multi-Detection Microplate Reader (BioTek) at 570 nm.

[5] = tested on: T24 cells; test: Flow cytometry cellular uptake, T24; assay type: cell-based; conditions: fluorescently labeled peptide 1 μM, 1 h
Experimental: as §2

[6] = target: T1, wild-type H-Ras-GDP (Homo sapiens, UniProt P01112); test: Microscale thermophoresis (MST), wild-type H-Ras-GDP; assay type: binding
T1 construct: Wild-type and mutant N-terminal His6-H-Ras (residues 1-166) in pProEx HTb expression vector; His6 (N); made in house; host or cells: Escherichia coli (BL21)
Experimental: Fluorescent labeling of the H-Ras protein was performed using the Monolith Protein Labeling Kit RED-MALEIMIDE 2nd Generation from NanoTemper (MO-L014) or AFDye 647 maleimide fluoroprobes (1122-1). Briefly, 20 nM of H-Ras protein was labeled with 1.5 equivalents of cysteine reactive dye in the 1× PBS under dark for 90 minutes. Labeled Ras proteins were then purified via the kit provided column, and the Degree of Label (DOL) was calculated by using the dye's absorbance and protein's original absorbance. The observed DOL value after the labeling for wild-type H-Ras-GDP was 0.43 and G12V H-Ras-GDP was 0.98.
MST binding assays were conducted with NanoTemper Monolith NT.115 Pico. Assay conditions were optimized with a premium coated capillary tube from NanoTemper to avoid random adsorption. Measurement was performed at 25° C. using 10-15% laser excitation power for 20 seconds. The assay buffer was composed of 50 mM Tris, 100 mM NaCl, and 0.1% pluronic acid. 5-10 nM of the dye labeled protein was exposed to serial dilutions of indicated CHDs and incubated for 90 mins in room temperature before the measurements. Error bars are generated from triplicates. Binding affinities were obtained from the MO analysis software in NT.115 Pico with the following equation:
[formula] [formula] • where, Unbd=Response value of unbound state Bd=Response value of bound state TC=Final concentration of fluorescent molecule

[7] = target: T2, wild-type His6-tagged H-Ras (1-166) pre-loaded with GDP (Homo sapiens, UniProt P01112); test: Fluorescence polarization binding assay, wild-type H-Ras-GDP
T2 construct: wild-type and mutant His6-tagged H-Ras (1-166) pre-loaded with GDP; made in house; host or cells: Escherichia coli (BL21)
From the text: GTP of the Ras-specific nucleotide exchange factor SOS. Cell 112, 685-695 (2003).

[8] = target: G12D mutant H-Ras pre-loaded with GDP (Homo sapiens, UniProt P01112, G12D)
Experimental: (§3) Wild-type and mutant N-terminal His6-H-Ras (residues 1-166) in pProEx HTb expression vector were expressed in Escherichia coli (BL21). Cells were grown at 37 ° C. to an absorbance of 0.7 at 600 nm. Protein expression was induced with 500 μM isopropyl β-D-1-thiogalactopyranoside (IPTG) for 6 hours at 30° C. or overnight at 18° C. The bacterial cells were pelleted via centrifugation at 4500 rpm for 15 minutes. Bacterial pellets were resuspended in a lysis buffer containing 20 mM Tris pH 7.4, 300 mM NaCl, 2 mM 2-mercaptoethanol, and a complete, EDTA-free protease inhibitor cocktail (Roche). The lysis, elution and dialysis buffers were also supplemented with 2.5 mM MgCl2. The resuspended pellets were sonicated using a Branson Cell Disrupter 200. Clarified lysates were formed upon centrifugation at 13,000 rpm for 20 minutes at 4° C. and incubated with charged Ni-NTA resin (Invitrogen) at 4° C. for 1 hour. The resin beads were washed five times with resuspension buffer containing 5 mM imidazole. The His6-tagged proteins were eluted via gravity flow with buffer containing 200 mM imidazole in buffer containing 20 mM Tris, 300 mM NaCl, pH 7.4. Eluted proteins were dialyzed twice against buffer containing 20 mM Tris, 300 mM NaCl, 2.5 mM MgCl2, pH 7.4 for H-Ras. For HSQC and photoaffinity labeling studies, the polyhistidine tag was cleaved using Tobacco Etch Virus (TEV) protease before proceeding to nucleotide loading.
(§4) The generated binding affinity (KD) values for each compound are from biological triplicate studies and were determined via fitting to a sigmoidal dose-response nonlinear regression model on Graphpad Prism 6.

[9] = target: G12C mutant H-Ras pre-loaded with GDP (Homo sapiens, UniProt P01112, G12C)
Experimental: as §3, §4

[10] = target: G12V mutant H-Ras pre-loaded with GDP (Homo sapiens, UniProt P01112, G12V)
Experimental: as §3, §4

[11] = compared to CHD^Sos-2
[12] = in vitro; conditions: bovine, 25% fetal bovine serum
Experimental: A 45 μL mixture of 33% FBS (v/v) in serum-free medium was prepared for each sample. The addition of 15 μL of indicated peptide in serum-free medium (25% FBS final) per each experiment was recorded as the starting time point. Time points of 5 min, 6 hours, 12 hours, and 24 hours were analyzed in triplicate. Each experiment was quenched at the determined time point by adding 30 μL 100% EtOH, which was prepared at −70° C. After cooling on ice for 10 minutes, each sample was pelleted at 14,000× g for 5 minutes. 30 μL of the supernatant was isolated, and 3 μL of 500 μM L-Tryptophan was titrated into the sample to be used as an internal standard. The resulting mixture was then immediately subjected to RP-HPLC with a C18 3.5 μm 2.1×150 mm analytical column and monitored at 280 nm. Eluting peaks were collected, and the mass of each peak was determined using MALDI-TOF spectroscopy. Integrated peak area of non-degraded peptides was used to determine the percent surviving in each given condition.

[13] = tested on: SW780 cells; conditions: SW780 cells (oncogenic FGFR3 fusions), 1 μM, 1 h
Experimental: The indicated cell lines were seeded at 1×10^5 cells/well in clear polystyrene 24-well plates (Corning) and incubated overnight. The initial growth medium is replaced with serum-free medium and incubated for 2 hours at 37° C. Upon aspiration, the cells are incubated in serum-free medium containing 0.4% DMSO (v/v) for one hour. The cells were then treated with 1 μM (final) of fluorescein-conjugated peptides in serum-free medium for another hour while protected from light. All compounds are dissolved as concentrated stocks in DMSO. Each well was aspirated and treated with 1× trypsin (0.25% trypsin, 2.21 mM EDTA, Corning Cellgro) for 10 minutes at 37° C. After trypsinization, the resulting solution was mixed with cold serum-free medium and collected. The samples are centrifuged at 500 rpm for 5 minutes at 4 °C.
The supernatant was removed, and the cell pellets were resuspended with cold PBS before placed on ice. Each sample was treated with 10% trypan blue (v/v) immediately before analysis by flow cytometry on a Becton Dickinson Accuri flow cytometer. The presented data consists of the median fluorescence intensities for at least 10,000 cells/sample and processed using FlowJo (Tree Star Inc.).

T1 sequence (P01112 1-166): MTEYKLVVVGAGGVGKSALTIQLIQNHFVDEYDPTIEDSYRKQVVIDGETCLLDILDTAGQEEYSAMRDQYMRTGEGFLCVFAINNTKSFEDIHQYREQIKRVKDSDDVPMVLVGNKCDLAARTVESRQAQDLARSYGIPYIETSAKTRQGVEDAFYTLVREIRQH
T2 sequence (P01112 1-166): as above
Sequence of G12V mutant H-Ras pre-loaded with GDP (P01112 1-166 G12V): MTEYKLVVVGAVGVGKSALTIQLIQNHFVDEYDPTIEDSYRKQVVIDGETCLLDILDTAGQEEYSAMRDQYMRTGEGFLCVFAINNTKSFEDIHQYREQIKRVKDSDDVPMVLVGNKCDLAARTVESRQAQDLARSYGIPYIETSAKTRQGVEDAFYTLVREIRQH
Sequence of G12C mutant H-Ras pre-loaded with GDP (P01112 1-166 G12C): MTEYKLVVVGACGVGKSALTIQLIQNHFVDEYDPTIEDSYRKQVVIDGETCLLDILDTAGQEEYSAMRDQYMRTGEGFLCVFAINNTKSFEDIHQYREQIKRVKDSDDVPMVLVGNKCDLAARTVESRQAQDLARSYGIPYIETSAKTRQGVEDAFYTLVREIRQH
Sequence of G12D mutant H-Ras pre-loaded with GDP (P01112 1-166 G12D): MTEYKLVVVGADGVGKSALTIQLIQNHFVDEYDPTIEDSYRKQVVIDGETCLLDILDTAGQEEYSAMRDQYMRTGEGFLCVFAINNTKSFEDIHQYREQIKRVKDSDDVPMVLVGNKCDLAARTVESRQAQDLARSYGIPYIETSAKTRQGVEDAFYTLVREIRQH

SMILES	effect on ERK phosphorylation [1]	cellular uptake, median fluorescence intensity [2]	effect on ERK phosphorylation [3]	cell viability (MTT) [4]	cellular uptake, median fluorescence intensity [5]	concentration above which aggregation was observed ([6]; MST with wild-type H-Ras-GDP, interrupted binding isotherm)	Kd ([6]; MST, fluorescently-labeled Ras, read-out: binding affinity, Kd)	Kd ([7]; fluorescein-derivatized CHD, GDP-bound wild-type H-Ras, fluorescence polarization, read-out: binding affinity, Kd)	binding affinity [8]	binding affinity [9]	binding affinity [10]	aqueous solubility [11]	half-life [12]	remaining at 24 h [12]	cellular uptake [13]	Kd [6]	Kd [7]
CC[C@H](C)[C@H](NC(=O)[C@H](C)NC(C)=O)C(=O)NCC(=O)N[C@@H](CCCNC(=N)N)C(=O)N[C@@H](CC(C)C)C(=O)N[C@@H](CSCc1ccc(COCc2ccc(CSC[C@H](NC(=O)[C@H](CC(C)C)NC(=O)[C@H](CCCNC(=N)N)NC(=O)[C@H](C)NC(=O)[C@H](CC(C)C)NC(=O)[C@H](CCC(=O)O)NC(=O)[C@H](CCCNC(=N)N)NC(=O)[C@H](CCC(=O)O)NC(=O)[C@H](CC(C)C)NC(=O)[C@H](CCC(=O)O)NC(=O)[C@H](CCCNC(=N)N)NC(=O)[C@H](CC(C)C)NC(=O)[C@H](CCCNC(=N)N)NC(=O)[C@H](Cc3c[nH]c4ccccc34)NC(=O)[C@H](C)NC(=O)[C@H](CC(C)C)NC(C)=O)C(N)=O)cc2)cc1)C(=O)N[C@H](C(=O)N[C@@H](CCC(=O)O)C(=O)N[C@H](C(=O)N[C@@H](CC(C)C)C(=O)N[C@@H](CCCNC(=N)N)C(=O)N[C@@H](CC(C)C)C(=O)N[C@@H](CCCNC(=N)N)C(=O)N[C@@H](CC(N)=O)C(=O)NCC(=O)N[C@@H](C)C(N)=O)[C@@H](C)CC)[C@@H](C)O [CHC^Sos-3] (HELM PEPTIDE1{[ac].A.I.G.R.L.C.T.E.I.L.R.L.R.N.G.A.[am]}|PEPTIDE2{[ac].L.A.W.R.L.R.E.L.E.R.E.L.A.R.L.C.[am]}|CHEM1{[c1cc(C[*:1])ccc1COCc1ccc(C[*:2])cc1]}$PEPTIDE1,CHEM1,7:R3-1:R1|PEPTIDE2,CHEM1,17:R3-1:R2$$$V2.0)	did not suppress ERK phosphorylation	lower uptake than CHC^Sos-5	did not suppress ERK phosphorylation	little to no effect	lower uptake than CHC^Sos-5	higher than 3 μM	> 100000 nM	> 100000 nM									
CC[C@H](C)[C@H](NC(=O)[C@H](Cc1c[nH]c2ccccc12)NC(C)=O)C(=O)NCC(=O)N[C@@H](CCCNC(=N)N)C(=O)N[C@@H](CC(C)C)C(=O)N[C@@H](CSCc1ccc(COCc2ccc(CSC[C@H](NC(=O)[C@H](CC(C)C)NC(=O)[C@H](CCCNC(=N)N)NC(=O)[C@H](C)NC(=O)[C@H](CC(C)C)NC(=O)[C@H](CCC(=O)O)NC(=O)[C@H](CCCNC(=N)N)NC(=O)[C@H](CCC(=O)O)NC(=O)[C@H](CC(C)C)NC(=O)[C@H](CCC(=O)O)NC(=O)[C@H](CCCNC(=N)N)NC(=O)[C@H](CC(C)C)NC(=O)[C@H](CCCNC(=N)N)NC(=O)[C@H](Cc3c[nH]c4ccccc34)NC(=O)[C@H](C)NC(=O)[C@H](CC(C)C)NC(C)=O)C(N)=O)cc2)cc1)C(=O)N[C@H](C(=O)N[C@@H](CCC(=O)O)C(=O)N[C@H](C(=O)N[C@@H](CCCCNC(=N)N)C(=O)N[C@@H](CCCNC(=N)N)C(=O)N[C@@H](CC(C)C)C(=O)N[C@@H](CCCNC(=N)N)C(=O)N[C@@H](CC(N)=O)C(=O)NCC(=O)N[C@@H](CC(N)=O)C(N)=O)[C@@H](C)CC)[C@@H](C)O [CHC^Sos-5] (HELM PEPTIDE1{[ac].L.A.W.R.L.R.E.L.E.R.E.L.A.R.L.C.[am]}|PEPTIDE2{[ac].W.I.G.R.L.C.T.E.I.[N=C(N)NCCCC[C@H](N[*:1])C(=O)[*:2]].R.L.R.N.G.N.[am]}|CHEM1{[c1cc(C[*:1])ccc1COCc1ccc(C[*:2])cc1]}$PEPTIDE1,CHEM1,17:R3-1:R1|PEPTIDE2,CHEM1,7:R3-1:R2$$$V2.0)									low micromolar affinity range	low micromolar affinity range	low micromolar affinity range	improves its aqueous solubility	> 24 h	~60%	permeable	300 ± 100 nM	2000 ± 300 nM
